Experimental data as given in patent publication US4808588A, “Heterocyclic ureas and carbonates useful as pharmaceuticals” (Beecham Group, p.l.c., priority 1986, dated 1989).

Test system: von Bezold-Jarisch reflex evoked by 5-HT
Assay: Antagonism of the von Bezold-Jarisch reflex evoked by 5-HT in the anaesthetised rat
Type: in vivo
Conditions: anaesthetised male rats, compound intravenous, 5-HT usually 6 μg/kg i.v., heart rate changes, read-out: ED50 (concentration required to reduce the 5-HT-evoked response to 50% of the control response)
Experimental: Antagonism of the von Bezold-Jarisch reflex
The compounds were evaluated for antagonism of the von Bezold-Jarisch reflex evoked by 5-HT in the anaesthetised rat according to the following method:
Male rats 250-350 g, were anaesthetised with urethane (1.25 g/kg intraperitoneally) and blood pressure and heart rate recorded as described by Fozard J. R. et al., J. Cardiovasc. Pharmacol. 2, 229-245 (1980). A submaximal dose of 5-HT (usually 6 μg/kg) was given repeatedly by the intravenous route and changes in heart rate quantified. Compounds were given intravenously and the concentration required to reduce the 5-HT-evoked response to 50% of the control response (ED50) was then determined.

SMILES | ED50 [µg/kg]
COc1ncccc1NC(=O)N[C@H]1C[C@H]2CC[C@@H](C1)N2C [Compound 1, (endo)-N-(8-Methyl-8-azabicyclo[3.2.1]oct-3-yl)-N'-(2-methoxy-pyrid-3-yl)urea] | 7.5
COc1ccsc1NC(=O)N[C@H]1C[C@H]2CC[C@@H](C1)N2C [Compound 3, (endo)-N-(8-Methyl-8-azabicyclo[3,2,1]oct-3-yl)-N'-(3-methoxythiophen-2-yl)urea] | 1
COc1cscc1NC(=O)N[C@H]1C[C@H]2CC[C@@H](C1)N2C [Compound 5, (endo)-N-(8-Methyl-8-azabicyclo[3,2,1]oct-3-yl)-N'-(4-methoxythiophen-3-yl)urea] | 2
